Some test systems named below: SF-539 CNS; NCI-H23 lung; DU-145 prostate; SW-620 colon; OVCAR-8 ovarian; OVCAR-5 ovarian; RPMI-8226 leukemia; KM12 colon; LXFL 529 NSCLC; XF 498 CNS.
Holding throughout (assay): NCI anticancer screen, dose series, 48 h

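48-hour exposure; five concentrations; linearly interpolated endpoints. Here, GI50 denotes the concentration required for 50% inhibition of growth. TGI: total growth inhibition.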

As to `O=C(N/N=C/c1ccccc1O)C(O)(c1ccccc1)c1ccccc1`, the GI50 in the assay with SF-539 CNS is > 100 µM; with NCI-H23 lung, > 100 µM; with DU-145 prostate, > 100 µM; in the assay on SW-620 colon it was > 100 µM; with OVCAR-8 ovarian it was 13.1 µM; in the assay with OVCAR-5 ovarian, > 100 µM. The GI50 in the assay with RPMI-8226 leukemia was > 100 µM; with KM12 colon, 9.93 µM. For the same molecule, the TGI in the assay with SF-539 CNS, in the assay with NCI-H23 lung, in the assay with DU-145 prostate, with SW-620 colon, in the assay on OVCAR-8 ovarian and in the assay with OVCAR-5 ovarian was > 100 µM throughout. The TGI with RPMI-8226 leukemia and in the assay on KM12 colon was > 100 µM each time.

With `COC(=O)[C@H]1[C@@H](O)[C@@]2(O)c3c(OC)cc(O[C@@H]4O[C@@H]([C@H](O)CO)CO[C@H]4OC)cc3O[C@@]2(c2ccc(OC)cc2)[C@@H]1c1ccccc1`, the GI50 with SF-539 CNS was 0.00187 µM; with NCI-H23 lung, 0.00441 µM; with DU-145 prostate it was 0.00416 µM; in the assay on SW-620 colon, 0.00605 µM; in the assay on OVCAR-8 ovarian, 0.0193 µM; in the assay on OVCAR-5 ovarian it was 0.00383 µM. For the same molecule, the values for the GI50 in the assay on RPMI-8226 leukemia and with KM12 colon were 0.00314 µM and 0.00329 µM, respectively. For the same molecule, the TGI in the assay on SF-539 CNS came to 0.00686 µM; in the assay on NCI-H23 lung, 0.0422 µM; in the assay with DU-145 prostate, 0.046 µM; in the assay on SW-620 colon, 0.186 µM; with OVCAR-8 ovarian, 0.136 µM; with OVCAR-5 ovarian it was 0.0311 µM. Moreover, the TGI in the assay with RPMI-8226 leukemia was determined as 0.0113 µM; in the assay on KM12 colon, 0.0333 µM.

With `O=C(CSc1nc2ccccc2nc1-c1ccccc1)Nc1ccc(Cl)cc1`, the GI50 in the assay on SF-539 CNS is 16.3 µM; with NCI-H23 lung, 30.5 µM; in the assay with DU-145 prostate it was 55.4 µM; with SW-620 colon it was 38.9 µM; with OVCAR-8 ovarian, 25.5 µM; in the assay with OVCAR-5 ovarian, > 100 µM. In addition, the figures for the GI50 in the assay with RPMI-8226 leukemia and in the assay on KM12 colon were 92.3 µM and 59.4 µM, respectively. Besides, the TGI with SF-539 CNS is 36.6 µM; in the assay with NCI-H23 lung, > 100 µM; with DU-145 prostate, > 100 µM; in the assay with SW-620 colon it was > 100 µM; in the assay with OVCAR-8 ovarian, > 100 µM; in the assay on OVCAR-5 ovarian, > 100 µM. The TGI with RPMI-8226 leukemia and with KM12 colon was > 100 µM each time.

As to `N=C(N)/N=C(\N)c1c(-c2cc(O)ccc2O)nc2sccn12`, the GI50 was 20.4 µM in the assay on SF-539 CNS; 19.5 µM in the assay on NCI-H23 lung; 16.8 µM with DU-145 prostate; 19.9 µM in the assay with SW-620 colon; 59.9 µM with OVCAR-8 ovarian; 18.3 µM in the assay on OVCAR-5 ovarian. Also, the GI50 is 21.9 µM with RPMI-8226 leukemia and 34.8 µM in the assay with KM12 colon. The TGI in the assay with SF-539 CNS is 38.4 µM; in the assay on NCI-H23 lung, 34.1 µM; in the assay on DU-145 prostate, 30.5 µM; with SW-620 colon, 39.4 µM; in the assay with OVCAR-8 ovarian, > 100 µM; in the assay on OVCAR-5 ovarian, 33.1 µM. Moreover, the results for the TGI with RPMI-8226 leukemia and in the assay on KM12 colon were 49.5 µM and > 100 µM, respectively.

For `Nc1nc(Cl)cc(NCCCCCNc2cc(Cl)nc(N)n2)n1`, the TGI with SF-539 CNS, in the assay on NCI-H23 lung, in the assay on LXFL 529 NSCLC, in the assay with SW-620 colon, in the assay with OVCAR-8 ovarian and with OVCAR-5 ovarian was > 100 µM each time. The TGI in the assay on RPMI-8226 leukemia and with KM12 colon was > 100 µM each time.

With `N.N.N.N.O=NN1CCCCCC1(P(=O)([O-])[O-])P(=O)([O-])[O-].[Pt+4].[Pt+4]`, the GI50 with SF-539 CNS, with NCI-H23 lung, with LXFL 529 NSCLC, in the assay on SW-620 colon, with OVCAR-8 ovarian and with OVCAR-5 ovarian was > 100 µM throughout. The GI50 with RPMI-8226 leukemia and with KM12 colon was > 100 µM throughout. Also, the TGI in the assay with SF-539 CNS, in the assay with NCI-H23 lung, in the assay with LXFL 529 NSCLC, in the assay with SW-620 colon, with OVCAR-8 ovarian and in the assay on OVCAR-5 ovarian was > 100 µM in each case. Moreover, the TGI in the assay on RPMI-8226 leukemia and in the assay with KM12 colon was > 100 µM in each case.

For the molecule `CC(=O)NC(CCCCN(Cc1ccccc1)C(=O)NCCCl)C(=O)NCc1ccccc1` (configuration not stated), the TGI in the assay on SF-539 CNS, with NCI-H23 lung, in the assay with LXFL 529 NSCLC, in the assay on SW-620 colon, with OVCAR-8 ovarian and in the assay on RPMI-8226 leukemia was > 100 µM in each case. Moreover, in the assay with KM12 colon, the TGI was > 100 µM.

`CCCOc1ccc(-c2nc(-c3ccc(N=Cc4ccc(N(CCOS(C)(=O)=O)CCOS(C)(=O)=O)cc4C)cc3)cs2)cc1`: the TGI in the assay on SF-539 CNS is 48.8 µM; with NCI-H23 lung, 30.8 µM; with DU-145 prostate it was 18.1 µM; with SW-620 colon it was > 100 µM; in the assay with OVCAR-8 ovarian, > 100 µM; in the assay with OVCAR-5 ovarian it was > 71.7 µM. In addition, the TGI was > 100 µM in the assay with RPMI-8226 leukemia and 42 µM in the assay with KM12 colon.

Regarding `Cc1ccc2c(c1)C(C)Cc1c(ncnc1-n1cnc3cc(C)ccc31)N2C` (configuration not stated), the GI50 with SF-539 CNS was 0.0218 µM; in the assay on NCI-H23 lung, 0.0567 µM; with DU-145 prostate, 0.0379 µM; with SW-620 colon, 0.0417 µM; with OVCAR-8 ovarian, 0.037 µM; with OVCAR-5 ovarian it was 0.048 µM. Further, the GI50 in the assay on RPMI-8226 leukemia is 0.0406 µM; in the assay on KM12 colon, 0.0368 µM. Also, the TGI amounted to 0.0593 µM in the assay with SF-539 CNS; 21.5 µM in the assay on NCI-H23 lung; 11.1 µM with DU-145 prostate; 15.9 µM in the assay with SW-620 colon; 15.8 µM in the assay on OVCAR-8 ovarian; 22.2 µM in the assay with OVCAR-5 ovarian. In addition, the results for the TGI in the assay on RPMI-8226 leukemia and with KM12 colon were 3.89 µM and 12.2 µM, respectively.

On to `O=C1OC(c2ccccc2)=N/C1=C\c1ccc2ccccc2c1`, for which the TGI in the assay on SF-539 CNS, in the assay with NCI-H23 lung, in the assay with SW-620 colon, in the assay on OVCAR-8 ovarian, with OVCAR-5 ovarian and with RPMI-8226 leukemia was > 100 µM in each case. In addition, the TGI in the assay with KM12 colon and in the assay with XF 498 CNS was > 100 µM each time.

The values above are taken from PubChem BioAssay (NCI).
